From ChEMBL document CHEMBL4842340, “Development of Cagrilintide, a Long-Acting Amylin Analogue” (J Med Chem, 2021)
Converted amounts (≈) assume the structure as drawn. *1 amine or outer side, *2 acyl side, *3 side chain or, on linkers, in order; H or OH if unused. Where a SMILES comes first, the peptide text is derived from it. Bridges are numbered along the chain shown (N, C = ends). [ ]: non-standard residue; d: D form. The star is where a group is joined. C20 diacid = O=C(O)CCCCCCCCCCCCCCCCCCC(=O)*; γGlu = O=C(O)[C@H](CCC(=O)[*:2])N[*:1]

Assays:
Homo sapiens [1] = species: Homo sapiens; assay: Ratio of EC50 for human calcitonin receptor expressed in BHK570 cells to EC50 for human AMY3R (CT+RAMP3) expressed in Hollex1 cells; format: cell-based
[2] = Solubility of the compound in bis-tris propane at pH 7 by UPLC analysis; format: physicochemical; conditions: bis-tris propane buffer
[3] = Agonist activity at human calcitonin receptor expressed in BHK570 cells assessed as increase in intracellular cAMP concentration incubated for 3 hrs in absence of albumin by CRE luciferase reporter gene assay; format: cell-based; conditions: BHK570, 3 h
Insulin (Homo sapiens) [4] = biological target: Insulin (Homo sapiens) (UniProt P01308); assay: Effect on insulin (unknown origin) amyloid fibril formation assessed as peptide recovery in glycyl-glycine buffer at pH 4 measured after 45 hrs by thioflavin-T fluorescence assay relative to control; design: concentration or dose not given beside the values
Insulin (Homo sapiens) [5] = biological target: Insulin (Homo sapiens) (UniProt P01308); assay: Effect on insulin (unknown origin) amyloid fibril formation assessed as lag time in HEPES buffer at pH 7.5 measured after 45 hrs by thioflavin-T fluorescence assay
[6] = Solubility of the compound in lactate at pH 5 by UPLC analysis; format: physicochemical; conditions: lactate buffer
[7] = Agonist activity at rat calcitonin receptor expressed in BHK-13 cells assessed as increase in intracellular cAMP concentration incubated for 25 mins by CRE luciferase reporter gene assay; format: cell-based; conditions: BHK-13, 25 min
Insulin (Homo sapiens) [8] = biological target: Insulin (Homo sapiens) (UniProt P01308); assay: Effect on insulin (unknown origin) amyloid fibril formation assessed as lag time in glycyl-glycine buffer at pH 4 measured after 45 hrs by thioflavin-T fluorescence assay
[9] = Agonist activity at rat AMY3R (CT+RAMP3) expressed in tk-ts13 cells assessed as increase in intracellular cAMP level incuabted for 25 mins by CRE luciferase reporter gene assay; format: cell-based; conditions: tk-ts13, 25 min
[10] = Solubility of the compound in bis-tris propane at pH 6.5 by UPLC analysis; format: physicochemical; conditions: bis-tris propane buffer
[11] = Solubility of the compound in lactate at pH 3 by UPLC analysis; format: physicochemical; conditions: lactate buffer
[12] = Solubility of the compound in bis-tris propane at pH 6 by UPLC analysis; format: physicochemical; conditions: bis-tris propane buffer
[13] = Solubility of the compound in bis-tris propane at pH 7.5 by UPLC analysis; format: physicochemical; conditions: bis-tris propane buffer
Insulin (Homo sapiens) [14] = biological target: Insulin (Homo sapiens) (UniProt P01308); assay: Effect on insulin (unknown origin) amyloid fibril formation assessed as peptide recovery in HEPES buffer at pH 7.5 measured after 45 hrs by thioflavin-T fluorescence assay relative to control
[15] = Solubility of the compound in bis-tris propane at pH 8 by UPLC analysis; format: physicochemical; conditions: bis-tris propane buffer
Rattus norvegicus [16] = species: Rattus norvegicus; assay: Ratio of EC50 for rat calcitonin receptor expressed in BHK-13 cells to EC50 for rat AMY3R (CT+RAMP3) expressed in tk-ts13 cells; format: cell-based
[17] = Agonist activity at human AMY3R (CT+RAMP3) expressed in Hollex1 cells incubated for 3 hrs by luminescence assay; format: cell-based; conditions: Hollex1, 3 h
Rattus norvegicus [18] = assay: Reduction in food intake in Sprague-Dawley rat at 3 nmol/kg, sc administered as single dose measured after 24 to 48 hrs relative to control; format: functional; design: scale not given: the % may be the effect or the level left; conditions: time 24-48 hrs
Rattus norvegicus [19] = assay: Reduction in food intake in Sprague-Dawley rat at 30 nmol/kg, sc administered as single dose measured upto 24 hrs relative to control; format: functional; design: scale not given: the % may be the effect or the level left; conditions: time hrs <=24
[20] = Displacement of [125I]-calcitonin from human calcitonin receptor expressed in tk-ts 13 cells measured after 120 mins by scintillation proximity assay; format: cell-based; conditions: tk-ts13
Rattus norvegicus [21] = assay: Reduction in food intake in Sprague-Dawley rat at 3 nmol/kg, sc administered as single dose measured upto 24 hrs relative to control; format: functional; design: scale not given: the % may be the effect or the level left; conditions: time hrs <=24
[22] = Displacement of [125I]-calcitonin from rat calcitonin receptor expressed in tk-ts 13 cells measured after 120 mins by scintillation proximity assay; format: cell-based; conditions: tk-ts13
[23] = Displacement of [125I]-amylin from human AMY3R (CTR+RAMP3) expressed in BHK-13 cells measured after 120 mins by scintillation proximity assay; format: cell-based
Rattus norvegicus [24] = assay: Reduction in food intake in Sprague-Dawley rat at 30 nmol/kg, sc administered as single dose measured after 24 to 48 hrs relative to control; format: functional; design: scale not given: the % may be the effect or the level left; conditions: time 24-48 hrs
[25] = Displacement of [125I]-amylin from rat AMY3R (CTR+RAMP3) expressed in BHK-13 cells measured after 120 mins by scintillation proximity assay; format: cell-based
Homo sapiens [26] = species: Homo sapiens; assay: Ratio of IC50 for displacement of [125I]-calcitonin from human calcitonin receptor expressed in tk-ts 13 cells to IC50 for displacement of [125I]-amylin from human AMY3R (CTR+RAMP3) expressed in BHK-13 cells; format: cell-based
Rattus norvegicus [27] = species: Rattus norvegicus; assay: Ratio of IC50 for displacement of [125I]-calcitonin from rat calcitonin receptor expressed in tk-ts 13 cells to IC50 for displacement of [125I]-amylin from rat AMY3R (CTR+RAMP3) expressed in BHK-13 cells; format: cell-based
[28] = Solubility of the compound in lactate at pH 4 by UPLC analysis; format: physicochemical; conditions: lactate buffer

Sequence of Insulin (Homo sapiens) (P01308 whole entry): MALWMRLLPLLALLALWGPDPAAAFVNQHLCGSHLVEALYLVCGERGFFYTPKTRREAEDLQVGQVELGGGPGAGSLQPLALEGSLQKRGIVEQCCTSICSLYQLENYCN

| solubility [2] | EC50 [3] | Activity (Insulin (Homo sapiens) [4]) | solubility [6] | EC50 [7] | TIME (Insulin (Homo sapiens) [8]) | EC50 [9] | solubility [10] | solubility [11] | solubility [12] | solubility [13] | solubility [15] | EC50 [17] | SMILES | Ratio EC50 (Homo sapiens [1]) | Ratio EC50 (Rattus norvegicus [16]) | other results |
| --- | --- | --- | --- | --- | --- | --- | --- | --- | --- | --- | --- | --- | --- | --- | --- | --- |
| 200 µM (≈ 886 µg/mL) | 0.18 nM | 57% | 5 µM (≈ 22.2 µg/mL) | 1.58 nM | 45 h | 0.278 nM | 200 µM (≈ 886 µg/mL) | 200 µM (≈ 886 µg/mL) | 200 µM (≈ 886 µg/mL) | 200 µM (≈ 886 µg/mL) | 200 µM (≈ 886 µg/mL) | 0.166 nM | CC[C@H](C)[C@H](NC(=O)[C@@H]1CCCN1C(=O)CNC(=O)[C@H](Cc1ccccc1)NC(=O)[C@H](CO)NC(=O)[C@H](CO)NC(=O)[C@H](CO)NC(=O)[C@H](CO)NC(=O)[C@H](CCCNC(=N)N)NC(=O)[C@H](Cc1cnc[nH]1)NC(=O)[C@H](CC(C)C)NC(=O)[C@H](Cc1ccccc1)NC(=O)[C@H](CCC(=O)O)NC(=O)[C@H](C)NC(=O)[C@H](CC(C)C)NC(=O)[C@H](CCCNC(=N)N)NC(=O)[C@H](CCC(N)=O)NC(=O)[C@@H](NC(=O)[C@H](C)NC(=O)[C@@H]1CSSC[C@H](NC(=O)[C@H](Cc2cnc[nH]2)NC(=O)CC[C@H](NC(=O)CCCCCCCCCCCCCCCCCCC(=O)O)C(=O)O)C(=O)N[C@@H](CC(N)=O)C(=O)N[C@@H]([C@@H](C)O)C(=O)N[C@@H](C)C(=O)N[C@@H]([C@@H](C)O)C(=O)N1)[C@@H](C)O)C(=O)N[C@@H](CC(C)C)C(=O)N1CCC[C@H]1C(=O)N1CCC[C@H]1C(=O)N[C@H](C(=O)N[C@@H](CC(=O)O)C(=O)N[C@H](C(=O)NCC(=O)N[C@@H](CO)C(=O)N[C@@H](CC(=O)O)C(=O)N[C@H](C(=O)N[C@@H](Cc1ccc(O)cc1)C(N)=O)[C@@H](C)O)C(C)C)[C@@H](C)O ({C20 diacid-γGlu}-HCNTATCATQRLAEFLHRSSSSFGPILPPTDVGSDTY-NH2; disulfide 2-7) | 1 | 6 | TIME (Insulin (Homo sapiens) [5]): 45 h; Activity (Insulin (Homo sapiens) [14]): 94% |
| 1 µM (≈ 4.72 µg/mL) | 0.136 nM | 9% | 200 µM (≈ 945 µg/mL) | 14.1 nM | 6 h | 0.335 nM | 1 µM (≈ 4.72 µg/mL) | 200 µM (≈ 945 µg/mL) | 1 µM (≈ 4.72 µg/mL) | 1 µM (≈ 4.72 µg/mL) | 1 µM (≈ 4.72 µg/mL) | 0.074 nM | CC[C@H](C)[C@H](NC(=O)[C@@H]1CCCN1C(=O)CNC(=O)[C@H](Cc1ccccc1)NC(=O)[C@H](CC(N)=O)NC(=O)[C@H](CC(N)=O)NC(=O)[C@H](CO)NC(=O)[C@H](CO)NC(=O)[C@H](Cc1cnc[nH]1)NC(=O)[C@H](Cc1cnc[nH]1)NC(=O)[C@H](CC(C)C)NC(=O)[C@H](Cc1ccccc1)NC(=O)[C@H](CC(N)=O)NC(=O)[C@H](C)NC(=O)[C@H](CC(C)C)NC(=O)[C@H](CCCNC(=N)N)NC(=O)[C@H](CCC(N)=O)NC(=O)[C@@H](NC(=O)[C@H](C)NC(=O)[C@@H]1CSSC[C@H](NC(=O)[C@H](Cc2cnc[nH]2)NC(=O)CC[C@H](NC(=O)[C@H](Cc2cnc[nH]2)NC(=O)[C@H](Cc2cnc[nH]2)NC(=O)CCCCCCCCCCCCCCCCCCC(=O)O)C(=O)O)C(=O)N[C@@H](CC(N)=O)C(=O)N[C@@H]([C@@H](C)O)C(=O)N[C@@H](C)C(=O)N[C@@H]([C@@H](C)O)C(=O)N1)[C@@H](C)O)C(=O)N[C@@H](CC(C)C)C(=O)N1CCC[C@H]1C(=O)N1CCC[C@H]1C(=O)N[C@H](C(=O)N[C@@H](CC(N)=O)C(=O)N[C@H](C(=O)NCC(=O)N[C@@H](CO)C(=O)N[C@@H](CC(N)=O)C(=O)N[C@H](C(=O)N[C@@H](Cc1ccc(O)cc1)C(N)=O)[C@@H](C)O)C(C)C)[C@@H](C)O ({C20 diacid}-HH[γGlu]HCNTATCATQRLANFLHHSSNNFGPILPPTNVGSNTY-NH2; disulfide 5-10) | 2 | 42 | Activity (Rattus norvegicus [18]): 4%; Activity (Rattus norvegicus [19]): 75%; IC50 [20]: 1.3 nM; Activity (Rattus norvegicus [21]): 32%; IC50 [22]: 3.33 nM; IC50 [23]: 0.216 nM; Activity (Rattus norvegicus [24]): 44%; IC50 [25]: 0.149 nM; Ratio IC50 (Homo sapiens [26]): 6; Ratio IC50 (Rattus norvegicus [27]): 22; solubility [28]: 200 µM (≈ 945 µg/mL) |
